The assay deals with T1, Bcl-2 protein (Recombinant Human Bcl-2 Protein) (Homo sapiens, UniProt P10415).
T1 construct: purchased Novus NBP2-34889
In words: Binding evaluation of mixture library compounds to Bcl-2 using AS-MS (affinity selection mass spectrometry). As to conditions: ASMS Ratio(%)=(A−C)/B×100; for ASMS ratio (%) n = 1: replicate n = 1; for ASMS ratio (%) n = 2: replicate n = 2. In a few lines:
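Pooled library of ~1200 compounds ([…] each, final) incubated with recombinant human Bcl-2 (20 μM final) in Tris-HCl pH 7.4, NaCl, Tween-20, DTT buffer, dark, 23° C., 1 h. Bound fraction recovered by SEC spin column, organic extraction, reversed-phase LC/MS. ASMS Ratio (%) = (A−C)/B×100 versus protein-free standard and SEC blank.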

The mark [1] stands for this setting: AS-MS on the mixture of 1200 library compounds.

T1 sequence (P10415 whole entry): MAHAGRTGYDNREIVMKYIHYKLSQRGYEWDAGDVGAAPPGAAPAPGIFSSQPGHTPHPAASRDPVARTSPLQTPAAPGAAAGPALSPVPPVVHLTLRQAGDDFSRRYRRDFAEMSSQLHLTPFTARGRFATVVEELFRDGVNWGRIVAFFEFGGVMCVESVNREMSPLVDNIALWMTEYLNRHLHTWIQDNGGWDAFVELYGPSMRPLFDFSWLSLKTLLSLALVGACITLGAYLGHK

With `CCOc1cncc(C#Cc2cncc(C(=O)N3CCN(c4ccc(C(=O)N(CC)CC)cc4)CC3)c2)c1` [B4J032-01, 4-[4-[5-[2-(5-Ethoxypyridin-3-yl)ethynyl]pyridine-3-carbonyl]piperazin-1-yl]-N,N-diethylbenzamide], under setting [1], the “ASMS ratio (%) n = 1” value is recorded as −7.2% and the “ASMS ratio (%) n = 2” value is 1.5%.
On the same counts, the results for `CCOc1cccc(-c2ccccc2CCC(=O)N2CCN(c3ccc(C(=O)N(CC)CC)cc3)CC2)c1` [B4J033-01, 4-[4-[3-[2-(3-Ethoxyphenyl)phenyl]propanoyl]piperazin-1-yl]-N,N-diethylbenzamide] are 0.0% and −0.9%.
On the same counts, the results for `CCOc1cncc(-c2ccccc2CCC(=O)N2CCN(c3ccc(C(=O)N(CC)CC)cc3)CC2)c1` [B4J034-01, 4-[4-[3-[2-(5-Ethoxypyridin-3-yl)phenyl]propanoyl]piperazin-1-yl]-N,N-diethylbenzamide] are −0.7% and 0.9%.
On the same counts, the results for `CCOc1cccc(-c2ccc(C(=O)N3CCN(c4ccc(C(=O)N(CC)CC)cc4)CC3)c3ccccc23)c1` [B4J035-01, 4-[4-[4-(3-Ethoxyphenyl)naphthalene-1-carbonyl]piperazin-1-yl]-N,N-diethylbenzamide] are 4.1% and 1.5%.
In the case of `CCOc1cncc(-c2ccc(C(=O)N3CCN(c4ccc(C(=O)N(CC)CC)cc4)CC3)c3ccccc23)c1` [B4J036-01, 4-[4-[4-(5-Ethoxypyridin-3-yl)naphthalene-1-carbonyl]piperazin-1-yl]-N,N-diethylbenzamide], under setting [1], the “ASMS ratio (%) n = 1” value was −0.3% and the “ASMS ratio (%) n = 2” value is −1.6%.
On the same counts, the results for `CCOc1cccc(-c2cc(C(=O)N3CCN(c4ccc(C(=O)N(CC)CC)cc4)CC3)cc(C(C)(C)C)c2)c1` [B4J037-01, 4-[4-[3-tert-Butyl-5-(3-ethoxyphenyl)benzoyl]piperazin-1-yl]-N,N-diethylbenzamide] are 2.7% and −1.5%.
Regarding `CCOc1cncc(-c2cc(C(=O)N3CCN(c4ccc(C(=O)N(CC)CC)cc4)CC3)cc(C(C)(C)C)c2)c1` [B4J038-01, 4-[4-[3-tert-Butyl-5-(5-ethoxypyridin-3-yl)benzoyl]piperazin-1-yl]-N,N-diethylbenzamide], under setting [1], the “ASMS ratio (%) n = 1” value is on record as 0.8% and the “ASMS ratio (%) n = 2” value is on record as 0.0%.
On the same counts, the results for `CCOc1cccc(-c2cc(C(=O)N3CCN(c4ccc(C(=O)N(CC)CC)cc4)CC3)cc(C(F)(F)F)c2)c1` [B4J039-01, 4-[4-[3-(3-Ethoxyphenyl)-5-(trifluoromethyl)benzoyl]piperazin-1-yl]-N,N-diethylbenzamide] are 2.2% and 0.1%.
For the molecule `CCOc1cncc(-c2cc(C(=O)N3CCN(c4ccc(C(=O)N(CC)CC)cc4)CC3)cc(C(F)(F)F)c2)c1` [B4J040-01, 4-[4-[3-(5-Ethoxypyridin-3-yl)-5-(trifluoromethyl)benzoyl]piperazin-1-yl]-N,N-diethylbenzamide], under setting [1], the “ASMS ratio (%) n = 1” value is given as −0.5% and the “ASMS ratio (%) n = 2” value was −1.2%.
In the same order, the values of `CCOc1cccc(C#Cc2cc(C(=O)N3CCN(c4ccc(C(=O)N(CC)CC)cc4)CC3)cc(C(F)(F)F)c2)c1` [B4J041-01, 4-[4-[3-[2-(3-Ethoxyphenyl)ethynyl]-5-(trifluoromethyl)benzoyl]piperazin-1-yl]-N,N-diethylbenzamide] are 2.8% and 1.7%.
For `CCOc1cncc(C#Cc2cc(C(=O)N3CCN(c4ccc(C(=O)N(CC)CC)cc4)CC3)cc(C(F)(F)F)c2)c1` [B4J042-01, 4-[4-[3-[2-(5-Ethoxypyridin-3-yl)ethynyl]-5-(trifluoromethyl)benzoyl]piperazin-1-yl]-N,N-diethylbenzamide], under setting [1], the “ASMS ratio (%) n = 1” value is recorded as 1.0% and the “ASMS ratio (%) n = 2” value was determined as 0.0%.
`CCOc1cccc(-c2cnn(-c3cc(C(=O)N4CCN(c5ccc(C(=O)N(CC)CC)cc5)CC4)cc(C(F)(F)F)c3)c2)c1` [B4J043-01, 4-[4-[3-[4-(3-Ethoxyphenyl)pyrazol-1-yl]-5-(trifluoromethyl)benzoyl]piperazin-1-yl]-N,N-diethylbenzamide]: under setting [1], the “ASMS ratio (%) n = 1” value came out at 3.8% and the “ASMS ratio (%) n = 2” value was 3.2%.
In the same order, the values of `CCOc1cncc(-c2cnn(-c3cc(C(=O)N4CCN(c5ccc(C(=O)N(CC)CC)cc5)CC4)cc(C(F)(F)F)c3)c2)c1` [B4J044-01, 4-[4-[3-[4-(5-Ethoxypyridin-3-yl)pyrazol-1-yl]-5-(trifluoromethyl)benzoyl]piperazin-1-yl]-N,N-diethylbenzamide] are 1.8% and 0.3%.
Take `CCOc1cccc(-c2ccccc2CN2CCN(c3ccc(C(=O)N(CC)CC)cc3)CC2)c1` [B4J045-01, 4-[4-[[2-(3-Ethoxyphenyl)phenyl]methyl]piperazin-1-yl]-N,N-diethylbenzamide]: under setting [1], the “ASMS ratio (%) n = 1” value worked out at 1.1% and the “ASMS ratio (%) n = 2” value is listed as 0.3%.
On the same counts, the results for `CCOc1cncc(-c2ccccc2CN2CCN(c3ccc(C(=O)N(CC)CC)cc3)CC2)c1` [B4J046-01] are 0.0% and 0.0%.
On the same counts, the results for `CCOc1cccc(-c2ccc(CN3CCN(c4ccc(C(=O)N(CC)CC)cc4)CC3)cc2C)c1` [B4J047-01, 4-[4-[[4-(3-Ethoxyphenyl)-3-methylphenyl]methyl]piperazin-1-yl]-N,N-diethylbenzamide] are −6.6% and 0.0%.
On the same counts, the results for `CCOc1cncc(-c2ccc(CN3CCN(c4ccc(C(=O)N(CC)CC)cc4)CC3)cc2C)c1` [B4J048-01, 4-[4-[[4-(5-Ethoxypyridin-3-yl)-3-methylphenyl]methyl]piperazin-1-yl]-N,N-diethylbenzamide] are 1.2% and −2.1%.
For `CCOc1cccc(-c2ccc(CN3CCN(c4ccc(C(=O)N(CC)CC)cc4)CC3)c(CC)c2)c1` [B4J049-01, 4-[4-[[4-(3-Ethoxyphenyl)-2-ethylphenyl]methyl]piperazin-1-yl]-N,N-diethylbenzamide], under setting [1], the “ASMS ratio (%) n = 1” value is 7.1% and the “ASMS ratio (%) n = 2” value was −1.4%.
In the same order, the values of `CCOc1cncc(-c2ccc(CN3CCN(c4ccc(C(=O)N(CC)CC)cc4)CC3)c(CC)c2)c1` [B4J050-01, 4-[4-[[4-(5-Ethoxypyridin-3-yl)-2-ethylphenyl]methyl]piperazin-1-yl]-N,N-diethylbenzamide] are 2.1% and 0.6%.
In the same order, the values of `CCOc1cccc(-c2ccc(CN3CCN(c4ccc(C(=O)N(CC)CC)cc4)CC3)cc2F)c1` [B4J051-01, 4-[4-[[4-(3-Ethoxyphenyl)-3-fluorophenyl]methyl]piperazin-1-yl]-N,N-diethylbenzamide] are −9.6% and −10.2%.
In the same order, the values of `CCOc1cncc(-c2ccc(CN3CCN(c4ccc(C(=O)N(CC)CC)cc4)CC3)cc2F)c1` [B4J052-01] are 0.5% and −1.5%.
With `CCOc1cccc(-c2ccc(CN3CCN(c4ccc(C(=O)N(CC)CC)cc4)CC3)c(OC)c2)c1` [B4J053-01, 4-[4-[[4-(3-Ethoxyphenyl)-2-methoxyphenyl]methyl]piperazin-1-yl]-N,N-diethylbenzamide], under setting [1], the “ASMS ratio (%) n = 1” value is listed as −0.1% and the “ASMS ratio (%) n = 2” value is listed as −6.0%.
In the same order, the values of `CCOc1cncc(-c2ccc(CN3CCN(c4ccc(C(=O)N(CC)CC)cc4)CC3)c(OC)c2)c1` [B4J054-01, 4-[4-[[4-(5-Ethoxypyridin-3-yl)-2-methoxyphenyl]methyl]piperazin-1-yl]-N,N-diethylbenzamide] are 0.0% and −1.1%.
On the same counts, the results for `CCOc1cccc(-c2cc(CN3CCN(c4ccc(C(=O)N(CC)CC)cc4)CC3)cc(OCC)c2)c1` [B4J055-01, 4-[4-[[3-Ethoxy-5-(3-ethoxyphenyl)phenyl]methyl]piperazin-1-yl]-N,N-diethylbenzamide] are −0.7% and 1.4%.
In the same order, the values of `CCOc1cncc(-c2cc(CN3CCN(c4ccc(C(=O)N(CC)CC)cc4)CC3)cc(OCC)c2)c1` [B4J056-01] are −1.4% and −1.5%.
Consider `CCOc1cccc(-c2cc(CN3CCN(c4ccc(C(=O)N(CC)CC)cc4)CC3)cc(OC(C)C)c2)c1` [B4J057-01, 4-[4-[[3-(3-Ethoxyphenyl)-5-propan-2-yloxyphenyl]methyl]piperazin-1-yl]-N,N-diethylbenzamide], for which, under setting [1], the “ASMS ratio (%) n = 1” value was determined as 5.3% and the “ASMS ratio (%) n = 2” value is −0.1%.
In the same order, the values of `CCOc1cncc(-c2cc(CN3CCN(c4ccc(C(=O)N(CC)CC)cc4)CC3)cc(OC(C)C)c2)c1` [B4J058-01, 4-[4-[[3-(5-Ethoxypyridin-3-yl)-5-propan-2-yloxyphenyl]methyl]piperazin-1-yl]-N,N-diethylbenzamide] are 2.2% and 0.5%.
Take `CCOc1cccc(-c2cc(CN3CCN(c4ccc(C(=O)N(CC)CC)cc4)CC3)cc(C(F)(F)F)c2)c1` [B4J061-01, 4-[4-[[3-(3-Ethoxyphenyl)-5-(trifluoromethyl)phenyl]methyl]piperazin-1-yl]-N,N-diethylbenzamide]: under “AS-MS, mixture library, Bcl-2”, the “ASMS ratio (%) n = 1” value was found to be 1.6% and the “ASMS ratio (%) n = 2” value was −1.8%.

The values are drawn from patent US20240132431A1, “METHOD FOR ALKYLATING ACIDIC FUNCTIONAL GROUP” (Chugai Seiyaku Kabushiki Kaisha, priority 2021, published 2024).
